Like-named read-outs stand apart in the source and are kept apart here.
Assays:
topo IIα = target: T1, topo IIα (Homo sapiens, UniProt P11388); assay: Nuclear-cytoplasmic fractionation and Western blot for topo IIα; type: cell-based; conditions: high-density RPMI-H929 cells, 25 μM, FIG. 13 legend
T1 construct: effect on the intracellular location of topo IIα in treated MM cells; endogenous in cells; host or cells: human multiple myeloma cells NCI-H929
Method: FIGS. 13(A) and (B) are blots from nuclear (nuc)-cytoplasmic (cyto) fractionation of high-density MM cells (n=2). […] Human myeloma RPMI-H929 cells were treated for 24 hours. Cells were then chemically separated into nuclear and cytoplasmic fractions.
Human myeloma cells were placed at plateau concentrations (4×10^6 cells/ml), and NES inhibitors were added at 25 μM for 20 hours. Cells were collected, washed in PBS, and fractionated by a method adapted from Li et al. (Li Y, Bor Y C, Misawa Y, Xue Y, Rekosh D, Hammarskjold M L. An intron with a constitutive transport element is retained in a Tap messenger RNA. Nature 2006; 443: 234-7). Separated fractions containing nuclei or precipitated cytosol were dissolved in 2% SDS buffer and assayed by SDS-PAGE Western blot analysis. Blots were probed with an anti-topo IIα Kis1 antibody (Millipore Corp.). […] Cells grown at log-phase concentrations were also fractionated. After MM cells were treated with NCI-9138 at 25 μM for 20 hours, CRM1-topo IIα complexes were isolated from cells by immunoprecipitation using a combination of both protein A and protein G magnetic beads according to the manufacturer's protocol (Miltenyi Biotec, Cologne, Germany). Co-immunoprecipitation was performed with 2 μg of anti-CRM1 antibody (Santa Cruz Biotechnology, Inc., Santa Cruz, Calif.). Immunoprecipitation samples were separated by SDS-PAGE, transferred to nitrocellulose membranes, and probed with anti-topo IIα Kis1 antibody (Millipore, Corp., Billerica, Mass.) and anti-mouse horseradish peroxidase secondary antibody.

RPMI-8226 (8226) = assay: CT-Glo cytotoxicity assay, 8226 cells; type: cell-based, human; conditions: Homo sapiens, RPMI-8226
Text: Compounds identified in Example 1 as the top scoring potential inhibitors for each of the two NES (20 each) were obtained from NCI and structures of these molecules confirmed using NMR and mass spectroscopy analysis, seen in FIGS. 4(A)-(C) and 5(A)-(D). The potential inhibitors were followed up using in vitro model cell cultures. MM cell lines NCI-H929 (H929) and RPMI-8226 (8226) were obtained from and tested for authenticity by the American Type Culture Collection (Manassas, Va.). All cell lines were grown as described previously (Turner, et al., Human topoisomerase IIalpha nuclear export is mediated by two CRM-1-dependent nuclear export signals. J Cell Sci 2004; 117: 3061-71).
(§1) The molecules with the highest docking scores were assayed for IC50 values. Cultures were tested for cytotoxicity using the CellTiter-Glo assay (CT-Glo cytotoxicity assay; Promega, Madison, Wis.), a luminescence-based homogeneous method for determining the number of viable cells in culture based on quantitation of the ATP present, which signals the presence of metabolically active cells (Corsino, et al., A novel class of cyclin-dependent kinase inhibitors identified by molecular docking act through a unique mechanism. J Biol Chem 2009; 284: 29945-55; Homsi, et al., Src activation in melanoma and Src inhibitors as therapeutic agents in melanoma. Melanoma Res 2009; 19: 167-75). All cells were assayed at log-phase growth conditions. Luminescence was measured with a Synergy 4 microplate reader (Bio-Tek Instruments, Inc., Winooski, Vt.). IC50 values were determined using a sigmoidal equilibrium model regression using XLfit version 5.2 (ID Business Solutions Ltd., Surrey, UK) (Corsino, et al., A novel class of cyclin-dependent kinase inhibitors identified by molecular docking act through a unique mechanism. J Biol Chem 2009; 284: 29945-55).

HL-60 = assay: CT-Glo cytotoxicity assay, HL-60 cells; type: cell-based; conditions: Homo sapiens, 72-h CT-Glo
Method: as §1

T1 sequence (P11388 whole entry): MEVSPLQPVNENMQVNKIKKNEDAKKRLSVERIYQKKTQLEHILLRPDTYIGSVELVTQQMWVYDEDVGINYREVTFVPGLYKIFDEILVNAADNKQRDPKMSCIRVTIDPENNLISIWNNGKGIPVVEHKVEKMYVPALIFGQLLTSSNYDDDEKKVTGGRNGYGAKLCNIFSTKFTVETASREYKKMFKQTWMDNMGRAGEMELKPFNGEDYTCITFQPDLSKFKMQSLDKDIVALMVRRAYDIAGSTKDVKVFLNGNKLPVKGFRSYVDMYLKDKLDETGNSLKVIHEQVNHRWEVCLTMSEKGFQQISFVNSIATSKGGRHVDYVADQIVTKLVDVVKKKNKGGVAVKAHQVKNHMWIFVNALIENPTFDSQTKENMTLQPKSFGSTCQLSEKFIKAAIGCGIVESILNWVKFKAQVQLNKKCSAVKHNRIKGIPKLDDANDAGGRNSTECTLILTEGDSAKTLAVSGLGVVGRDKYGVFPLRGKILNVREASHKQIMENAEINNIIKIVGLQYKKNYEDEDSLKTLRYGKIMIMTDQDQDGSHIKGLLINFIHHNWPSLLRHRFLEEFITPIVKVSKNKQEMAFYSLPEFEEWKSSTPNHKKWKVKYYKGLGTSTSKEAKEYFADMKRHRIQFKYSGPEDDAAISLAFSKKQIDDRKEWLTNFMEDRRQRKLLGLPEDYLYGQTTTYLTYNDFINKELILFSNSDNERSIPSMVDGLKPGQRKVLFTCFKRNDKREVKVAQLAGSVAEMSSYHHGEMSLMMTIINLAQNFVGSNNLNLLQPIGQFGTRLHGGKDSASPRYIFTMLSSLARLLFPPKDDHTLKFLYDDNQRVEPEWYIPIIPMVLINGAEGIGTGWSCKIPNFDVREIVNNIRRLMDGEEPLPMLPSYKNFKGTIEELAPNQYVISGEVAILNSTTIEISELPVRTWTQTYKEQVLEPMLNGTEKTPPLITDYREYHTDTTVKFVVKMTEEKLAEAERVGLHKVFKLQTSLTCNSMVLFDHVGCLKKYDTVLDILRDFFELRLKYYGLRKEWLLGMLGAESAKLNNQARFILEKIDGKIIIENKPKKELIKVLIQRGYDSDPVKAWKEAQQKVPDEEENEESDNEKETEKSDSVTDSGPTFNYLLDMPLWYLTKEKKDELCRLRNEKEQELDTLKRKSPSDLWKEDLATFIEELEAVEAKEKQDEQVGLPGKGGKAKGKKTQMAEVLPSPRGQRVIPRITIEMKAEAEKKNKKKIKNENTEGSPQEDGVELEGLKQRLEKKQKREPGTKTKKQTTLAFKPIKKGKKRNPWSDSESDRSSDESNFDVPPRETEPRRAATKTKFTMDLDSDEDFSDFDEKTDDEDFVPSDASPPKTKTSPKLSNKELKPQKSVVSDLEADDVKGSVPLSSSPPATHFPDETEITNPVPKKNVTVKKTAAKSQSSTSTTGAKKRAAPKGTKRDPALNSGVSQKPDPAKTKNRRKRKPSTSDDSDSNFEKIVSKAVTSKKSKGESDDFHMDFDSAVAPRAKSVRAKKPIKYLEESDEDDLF

## O=C1c2ccccc2C(=O)C1C(=O)C(c1ccccc1)c1ccccc1 [NCI-9138, 2-(diphenylacetyl)-1H-indene-1,3(2H)-dione]
Topo IIα
  Export of topo IIα, nuclear-cytoplasmic fractionation: strongly blocked export of topo IIα
RPMI-8226 (8226); 8226 cells, 72-h CT-Glo, log-phase (low-density), average ± SD, read-out: IC50
  IC50: 12.7 ± 4.5 µM
RPMI-8226 (8226); high-density cells, single agent (data not shown), read-out: IC50, viability of high-density cells
  IC50: 9.4 µM
HL-60
  IC50: 28.3 µM

— patent US9616051B2, “Drug targets to overcome de novo drug-resistance in multiple myeloma” (H. Lee Moffitt Cancer Center and Research Institute, Inc., priority 2008, dated 2017)
